Source: PMC3069126 (Journal of natural products, 2011)
Values belong to the molecule of their own block, whether it stands above or below them.

Columns and labels:
[1] = system: ovine QR2; test: Ultrafiltration LC-MS binding assay for QR2
[2] = target: T1, quinone reductase 2 (QR2) (Homo sapiens, UniProt P16083); test: QR2 assay
T1 sequence (P16083 1-231): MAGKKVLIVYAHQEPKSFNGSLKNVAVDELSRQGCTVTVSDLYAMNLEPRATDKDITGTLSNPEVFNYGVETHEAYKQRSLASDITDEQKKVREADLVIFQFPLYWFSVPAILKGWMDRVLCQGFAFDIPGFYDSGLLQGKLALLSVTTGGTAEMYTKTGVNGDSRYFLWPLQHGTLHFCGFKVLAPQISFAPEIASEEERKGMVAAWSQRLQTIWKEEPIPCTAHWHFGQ

[3] = system: Hepa1c1c7 cells; test: Cytotoxicity assay; type: cell-based; conditions: Hepa-1c1c7, read-out: inhibition of Hepa1c1c7
[4] = system: MCF-7 cells; test: Cytotoxicity assay; type: cell-based; conditions: Homo sapiens, MCF7, read-out: inhibition of MCF-7

- response in LC-MS ultrafiltration binding assay with QR2 [1]: positive response
SMILES: COc1c(-c2ccc(O)cc2)oc2cc(O[C@@H]3O[C@H](CO[C@@H]4O[C@@H](CO)[C@H](O)[C@H]4O)[C@@H](O)[C@H](O)[C@H]3O)cc(O)c2c1=O [Compound 10, 4′, 5,7-trihydroxy-3-methoxyflavone-7-O-α-L-arabinofuranosyl (1→6)-β-D-glucopyranoside]

- response in LC-MS ultrafiltration binding assay with QR2 [1]: positive response
SMILES: COc1c(-c2ccc(O)cc2)oc2cc(O[C@@H]3O[C@H](CO)[C@@H](O)[C@H](O)[C@H]3O)cc(O)c2c1=O [Compound 14, 4′, 5,7-trihydroxy-3-methoxyflavone-7-O-β-D-glucopyranoside]

- ability to inhibit QR2 (in words) [2]: able to inhibit QR2
SMILES: O=c1c(O[C@@H]2O[C@H](CO)[C@@H](O)[C@H](O)[C@H]2O)c(-c2ccc(O)c(O)c2)oc2cc(O)cc(O)c12 [Compound 15, quercetin-3-O-β-D-glucoside]

The next lines start with the molecule.

SMILES: CC(=O)O[C@H]1C(=O)[C@@]2(C)[C@H]([C@H](OC(=O)c3ccccc3)[C@]3(O)C[C@H](OC(=O)[C@H](O)[C@@H](NC(=O)c4ccccc4)c4ccccc4)C(C)=C1C3(C)C)[C@]1(OC(C)=O)CO[C@@H]1C[C@@H]2O [paclitaxel]
- inhibition at 23.4 µM [3]: 57%
- inhibition at 23.4 µM [4]: 64%

SMILES: CC[C@]1(O)C[C@@H]2CN(CCc3c([nH]c4ccccc34)[C@@](C(=O)OC)(c3cc4c(cc3OC)N(C)[C@H]3[C@@](O)(C(=O)OC)[C@H](OC(C)=O)[C@]5(CC)C=CCN6CC[C@]43[C@@H]65)C2)C1 [vinblastine]
- inhibition at 49.4 µM [3]: 90%
- inhibition at 49.4 µM [4]: 74%
